From US7732398B2, “Medicinal uses of mu-opioid receptor agonists” (Cornell Research Foundation, Inc., priority 2000, dated 2010) come the findings set out here.

The test system of series [1] is Male Sprague-Dawley rats. Nature of the series: Rat tail-flick test, antinociceptive effects after intrathecal administration. The following applies: yohimbine 100 μg alone, intrathecal. The series is classed as in vivo. The procedure:
Male Sprague-Dawley rats (300-350 g) were used.
Under light halothane anesthesia a needle connected to a Hamilton syringe was inserted percutaneously between spinal processes of the third and fourth lumbar vertebrae into the intrathecal space. A quick flick of the tail was observed when the tip of the needle entered the intrathecal space and was used as an indicator of successful puncture (Mestre et al., 1994). Drugs were delivered in a volume of 5 μl.
Intrathecal catheterization was performed at least two days prior to the experiment as previously described (Shimoyama et al., 1996). Briefly, under halothane anesthesia, a PE-10 tube was inserted through a small hole made in the atlanto-occipital membrane and threaded 8.5 cm down the intrathecal space to the lumbosacral level of the spinal cord. Drugs were delivered via the catheter in a volume of 5 μl, followed by 10 μl saline to flush the catheter.
To assess the antinociceptive effects of the opioids, the tail-flick test was used. Radiant heat was applied to the tail at 5-8 cm from the tip using a tail-flick apparatus (IITC, Woodland Hills, Calif.). The time from the onset of the heat to the withdrawal of the tail (tail-flick latency) was measured. The intensity of the radiant heat was adjusted so that baseline latencies would fall between 2.5 and 3.5 seconds. To avoid tissue damage the heat stimulus was discontinued after seven seconds. A baseline latency was obtained for each animal prior to the administration of any drug. Subsequent response latencies were determined at designated time points. Analgesic testing was performed by a blinded investigator.
Cumulative dose-response studies were performed for each drug using the tail-flick test (Shimoyama et al., 1996), (Shimoyama et al., 1997). Each drug was tested in a group of ten rats. After measuring the baseline latencies, increasing doses of each drug were administered via an intrathecal catheter until each animal in the group became an analgesic responder. An analgesic responder was defined as one whose response tail-flick latency was two or more times the value of the baseline latency. The response latency after each dosing was determined at peak analgesia, which was 15, 30 and 45 min after the administration of the MOR, DALDA and [Dmt^1]DALDA, respectively (based on preliminary studies). Any subsequent dosing was performed immediately after the determination of response latency. The percentage of analgesic responders in the group of rats for each cumulative dose was calculated, and a cumulative dose-response curve was constructed. The dose-response data were analyzed by the BLISS-21 computer program. This program maximized the log-likelihood function to fit a parallel set of gaussian normal sigmoid curves to the dose-response data and provides ED50 values, 95% confidence interval (CI) and relative potency estimates (Umans and Inturrisi, 1981).
The effect of naloxone on the antinociceptive effects of intrathecal MOR, DALDA and [Dmt^1]DALDA was examined. An equipotent dose (3 times the ED50 value determined in Study 1) of MOR, DALDA or [Dmt^1]DALDA was given via an intrathecal catheter. Tail-flick latencies were measured prior to the administration of any drug and at the time of peak analgesia for each compound (at 15, 30 and 45 minutes after administration, for MOR, DALDA and [Dmt^1]DALDA, respectively). Naloxone hydrochloride at a dose of 82.5 nmol or saline was administered via the intrathecal catheter 10 minutes prior to the second tail-flick testing. Four rats were tested for each combination of drugs. Data were analyzed using the paired t-test.
A dose 3 times the ED50 value of MOR, DALDA, or [Dmt^1]DALDA was administered intrathecally. Tail-flick latencies were measured prior to the administration of any drug (=baseline latency) and at the time of peak analgesia (=response latency). […]
(In general: Hot-plate and tail-flick tests time the reaction to a heat stimulus.)

A short description of series [2]: In vivo pharmacokinetics in sheep. As to conditions: preliminary data, compared with DALDA and [Dmt1]DALDA. The procedure:
Five or more days were allowed for recovery from surgery prior to experimental studies.
In vivo pharmacokinetic studies In order to avoid the rapid distribution phase associated with intravenous bolus administration, all three peptides were administered as constant rate intravenous infusions to sheep. […] DALDA (0.6 mg/kg/hr) and [Dmt^1]DALDA (0.06 mg/kg/hr) were, therefore, infused via the venous catheter for a period of 4 hr. […] The current limit of sensitivity of the analytical method prevented the use of an even lower dose of [Dmt^1]DALDA. Blood samples (5 ml) were collected from the arterial catheter at 0, 1, 2, 3, 3.5, 4, 4.25, 4.5, 5, 6 and 7 hr.
Pharmacokinetic Analyses Plasma levels of DAMGO, DALDA and [Dmt^1]DALDA during and after the 4 h infusion were subjected to compartmental analysis using nonlinear regression (WINNONLIN). The derived pharmacokinetic constants were used to calculate the apparent volume of distribution at steady state (Vd), elimination half-life (t1/2) and clearance (CL).

“Also recorded” adds a separate entry of the source.

`COC(=O)[C@@H]1[C@H]2C[C@H]3c4[nH]c5ccccc5c4CCN3C[C@@H]2CC[C@@H]1O` [Yohimbine, yohimbine, reference compound]: the “effect on tail-flick latency” value in series [1] is on record as “no effect; also recorded: not having any effect on tail-flick latency by itself”.

With `C[C@@H](NC(=O)[C@@H](N)Cc1ccc(O)cc1)C(=O)NCC(=O)N(C)[C@@H](Cc1ccccc1)C(=O)NCCO` [DAMGO], in series [2], the elimination in sheep result is “much more rapid elimination”.
